The source of these data is patent publication US11780893B2, “Kv1.3 blockers” (Zealand Pharma A/S, priority 2019, dated 2023).

The target of test [1] is T1, human Kv1.3 voltage-gated K+ channel (Homo sapiens, UniProt P22001).
T1 construct: host or cells: CHO-DUKX
Put plainly: cell-based. As to conditions: inhibition of thallium flux, CHO-DUKX cells with human Kv1.3; read-out: IC50.

For the next test, the target named is T2, Kv1.1 (Homo sapiens, UniProt Q09470).
T2 construct: expressed in transfected cells; host or cells: Chinese Hamster Ovary (CHO)
Briefly: cell-based. Particulars: for IC50: CHO cells, whole-cell patch clamp, read-out: Potency IC50 (nM) Kv1.1; for Selectivity Kv1.1/Kv1.3: ratio IC50[Kv1.1]/IC50[Kv1.3].

The next test has as its target Rat whole blood (Rattus norvegicus, UniProt P15384).
A further test deals with T3, Kv1.2 (Homo sapiens, UniProt P16389).
T3 construct: expressed in transfected cells; host or cells: Chinese Hamster Ovary (CHO)
Briefly: cell-based. Particulars: for IC50: CHO cells, whole-cell patch clamp, read-out: Potency IC50 (nM) Kv1.2.

A further test addresses T4, Kv1.3 (Homo sapiens, UniProt P22001).
T4 construct: expressed in transfected cells; host or cells: Chinese Hamster Ovary (CHO)
Briefly: cell-based. Particulars: CHO cells, whole-cell patch clamp; read-out: Potency IC50 (nM) Kv1.3.

The target in the next test is T5, Kv1.6 (Homo sapiens, UniProt P17658).
T5 construct: expressed in transfected cells; host or cells: Chinese Hamster Ovary (CHO)
Put plainly: cell-based. As to conditions: for IC50: CHO cells, whole-cell patch clamp, read-out: Potency IC50 (nM) Kv1.6; for Selectivity Kv1.6/Kv1.3: ratio IC50[Kv1.6]/IC50[Kv1.3].

Test [2] deals with Human peripheral blood mononuclear cells (PBMCs). Briefly: IL-2 release from anti-CD3 stimulated human PBMCs (Example 4b). The format is cell-based. Particulars: geometric mean, at least 6 replicates, read-out: anti-CD3 PBMC/IL-2 IC50. As for the experimental part: Human peripheral blood mononuclear cells (PBMCs) were used to assess the effects of Kv1.3 blockers on T-cell activation as determined by IL-2 release after stimulation with anti-CD3.
Human PBMCs were obtained from Precision for Medicine (Frederick, Md.). Cells from 5 donors were used. Plate-bound anti-CD3 was used to stimulate bulk T cells in the PBMC preparations. Briefly, 96-well plates were coated with anti-CD3 antibody for app. 16 hours at 5° C., using 50 μl of a 1 μg/ml anti-CD3 solution diluted in PBS. Thereafter the plates were washed twice.
Kv1.3 blockers were subsequently diluted in medium (RPMI 1640 with Glutamax-I containing, 10% v/v Fetal Bovine Serum, 1% v/v penicillin-streptomycin Solution) and added in a volume of 50 μl. The compounds indicated in Table 4b were used at concentrations ranging from […] to 1000 nM (half log dilutions, starting concentrations varying).
Finally, 50.000 PBMCs in the same medium were added to each well in a volume of 50 μl, giving a final volume of 100 μl per well. The plates were incubated for 20-24 hours in a 37° C./5% CO2 incubator. After centrifugation of the plates, 25 μl supernatant was transferred to IL-2 detection plates (MSD Human IL-2 Tissue Culture Kit, cat #K151AHB-2) and IL-2 was measures as described by the manufacturer (Meso Scale Discovery, Rockville, Md., USA).
Results are shown in Table 4b as geometric mean of IC50 values obtained from anti-CD3 stimulated human PBMC assays. All values derive from at least 6 replicates.

For test [3] the test system is unchanged. Briefly: IL-2 release from anti-CD3 stimulated human PBMCs (Example 4a). The format is cell-based. As to conditions: geometric mean, at least 4 replicates, read-out: anti-CD3 PBMC/IL-2 IC50. As for the experimental part:
Human peripheral blood mononuclear cells (PBMCs) were used to assess the effects of Kv1.3 blockers on T-cell activation as determined by IL-2 (cytokine) release after stimulation with anti-CD3.
Human PBMCs were obtained from Precision for Medicine (Frederick, Md.). Cells from 5 donors were used. Plate-bound anti-CD3 was used to stimulate bulk T cells in the PBMC preparations. Briefly, 96-well plates were coated with anti-CD3 antibody for 2 hrs at 37° C., using 50 μL of a 0.5 μg/mL anti-CD3 solution diluted in 1×PBS. Thereafter the plates were washed twice.
Finally, 1×10^5 PBMCs were added to each well in a volume of 100 μL, giving a final volume of 200 μL per well. The plates were incubated for 20-24 hours in a 37° C./5% CO2 incubator. After centrifugation of the plates, 25 μl supernatant was transferred to IL-2 detection plates (MSD Human IL-2 Tissue Culture Kit, cat #K151AHB-2) and IL-2 was measures as described by the manufacturer (Meso Scale Discovery, Rockville, Md., USA).
Results are shown in Table 4a as geometric mean of IC50 values obtained from anti-CD3 stimulated human PBMC assays. All values derive from at least 4 replicates.

In test [4] the test system is delayed-type hypersensitivity (DTH) ear swelling response. It counts as in vivo, rat. Particulars: CsA 10 mg/kg per os, +/- SD.

Like-named read-outs stand apart in the source and are kept apart here. Bridge positions count the residues as written; N and C are the ends. Square brackets hold non-standard residues; d marks the D form. Peptide text beside a SMILES is read from it. Nle = CCCC[C@H](N)C(=O)O A value given as a limit tells only on which side of the number the result lay.

Rat whole blood, sequence (P15384 whole entry): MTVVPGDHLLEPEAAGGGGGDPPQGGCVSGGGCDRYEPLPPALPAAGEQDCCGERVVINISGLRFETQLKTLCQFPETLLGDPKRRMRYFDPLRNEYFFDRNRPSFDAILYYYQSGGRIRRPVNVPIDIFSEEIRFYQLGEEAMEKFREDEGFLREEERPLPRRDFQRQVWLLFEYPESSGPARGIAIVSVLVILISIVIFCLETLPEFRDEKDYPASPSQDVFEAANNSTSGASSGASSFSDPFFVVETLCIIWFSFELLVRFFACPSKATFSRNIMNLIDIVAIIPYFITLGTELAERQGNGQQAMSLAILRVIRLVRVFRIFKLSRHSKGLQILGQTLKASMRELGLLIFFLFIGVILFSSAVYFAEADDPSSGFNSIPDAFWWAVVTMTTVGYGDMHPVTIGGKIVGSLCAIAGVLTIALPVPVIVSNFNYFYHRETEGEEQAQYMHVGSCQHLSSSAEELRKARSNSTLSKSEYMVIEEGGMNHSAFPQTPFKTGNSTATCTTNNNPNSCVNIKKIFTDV
T5 sequence (P17658 whole entry): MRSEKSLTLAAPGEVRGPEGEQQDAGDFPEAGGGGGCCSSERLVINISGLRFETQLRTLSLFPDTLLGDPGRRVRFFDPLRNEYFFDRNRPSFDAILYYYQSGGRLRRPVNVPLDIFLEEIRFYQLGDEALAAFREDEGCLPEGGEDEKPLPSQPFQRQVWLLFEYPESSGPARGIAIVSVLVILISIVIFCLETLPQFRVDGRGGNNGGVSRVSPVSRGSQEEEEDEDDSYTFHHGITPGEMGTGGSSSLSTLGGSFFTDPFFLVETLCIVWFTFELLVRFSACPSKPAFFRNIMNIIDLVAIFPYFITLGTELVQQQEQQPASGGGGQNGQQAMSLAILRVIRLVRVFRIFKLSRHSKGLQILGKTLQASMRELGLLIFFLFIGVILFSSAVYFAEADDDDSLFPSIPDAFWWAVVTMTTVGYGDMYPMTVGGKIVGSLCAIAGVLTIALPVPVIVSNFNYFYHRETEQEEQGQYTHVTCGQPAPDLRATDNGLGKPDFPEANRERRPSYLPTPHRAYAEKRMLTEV
T3 sequence (P16389 whole entry): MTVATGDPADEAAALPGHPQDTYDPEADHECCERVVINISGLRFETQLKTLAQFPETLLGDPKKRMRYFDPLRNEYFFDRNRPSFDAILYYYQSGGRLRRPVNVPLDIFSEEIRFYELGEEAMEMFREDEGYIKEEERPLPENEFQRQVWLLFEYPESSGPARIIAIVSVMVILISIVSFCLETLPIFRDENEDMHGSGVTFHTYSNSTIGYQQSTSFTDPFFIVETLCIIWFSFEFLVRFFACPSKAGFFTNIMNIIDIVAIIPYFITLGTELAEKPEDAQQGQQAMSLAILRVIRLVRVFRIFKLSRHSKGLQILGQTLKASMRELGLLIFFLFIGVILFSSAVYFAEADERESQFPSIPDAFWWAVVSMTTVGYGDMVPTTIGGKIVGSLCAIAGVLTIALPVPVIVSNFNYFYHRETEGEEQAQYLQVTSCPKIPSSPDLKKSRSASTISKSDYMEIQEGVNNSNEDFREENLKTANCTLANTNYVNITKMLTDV
T1 sequence (P22001 whole entry): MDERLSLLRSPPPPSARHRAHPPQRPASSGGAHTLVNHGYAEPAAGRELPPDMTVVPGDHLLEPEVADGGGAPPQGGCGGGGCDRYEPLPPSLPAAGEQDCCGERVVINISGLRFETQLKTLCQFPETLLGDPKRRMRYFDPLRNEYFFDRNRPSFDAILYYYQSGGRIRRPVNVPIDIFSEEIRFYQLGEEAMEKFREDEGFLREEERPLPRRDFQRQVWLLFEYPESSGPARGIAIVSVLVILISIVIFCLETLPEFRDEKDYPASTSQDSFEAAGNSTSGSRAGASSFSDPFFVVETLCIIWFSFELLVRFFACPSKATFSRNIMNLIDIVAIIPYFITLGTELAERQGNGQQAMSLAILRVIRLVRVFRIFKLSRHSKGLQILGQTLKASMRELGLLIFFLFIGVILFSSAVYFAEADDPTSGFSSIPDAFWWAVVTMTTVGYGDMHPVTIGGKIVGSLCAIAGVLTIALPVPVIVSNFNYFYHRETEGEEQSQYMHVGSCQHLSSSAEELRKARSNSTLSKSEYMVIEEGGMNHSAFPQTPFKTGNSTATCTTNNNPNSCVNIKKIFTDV
T4 sequence (P22001 whole entry): as above
T2 sequence (Q09470 whole entry): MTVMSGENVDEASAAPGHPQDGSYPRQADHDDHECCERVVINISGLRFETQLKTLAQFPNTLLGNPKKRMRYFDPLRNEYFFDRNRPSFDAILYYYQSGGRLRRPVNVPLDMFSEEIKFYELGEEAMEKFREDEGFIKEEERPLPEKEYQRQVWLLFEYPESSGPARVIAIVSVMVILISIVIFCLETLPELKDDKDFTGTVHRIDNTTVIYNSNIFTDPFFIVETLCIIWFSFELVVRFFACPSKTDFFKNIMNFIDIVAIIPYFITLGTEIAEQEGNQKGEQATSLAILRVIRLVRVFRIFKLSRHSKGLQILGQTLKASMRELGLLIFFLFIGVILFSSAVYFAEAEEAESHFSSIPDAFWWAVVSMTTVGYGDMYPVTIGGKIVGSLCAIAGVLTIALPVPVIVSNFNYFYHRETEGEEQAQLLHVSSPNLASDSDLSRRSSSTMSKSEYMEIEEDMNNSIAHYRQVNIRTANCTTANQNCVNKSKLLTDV

As to `CC[C@H](C)[C@@H]1NC(=O)[C@H](C)NC(=O)[C@H](CCCCN)NC(=O)[C@H](CC(C)C)NC(=O)[C@@H]2CSSC[C@@H](C(=O)N[C@@H](Cc3ccc(O)cc3)C(=O)N3CCC[C@H]3C(=O)N[C@@H](CCCNC(=N)N)C(=O)O)NC(=O)[C@H](CCCCN)NC(=O)[C@@H]3CSSC[C@H](NC(=O)[C@H](CCC(=O)O)NC(=O)[C@H](C(C)C)NC(=O)[C@H](CO)NC(=O)[C@H](C)NC(=O)[C@H](CO)NC(=O)[C@@H](NC(=O)[C@H](CCCNC(=N)N)NC(=O)[C@H](CCSC)NC(=O)[C@H](CC(=O)O)NC(=O)[C@H](CCSC)NC(=O)[C@@H](N)CCC(N)=O)CSSC[C@H](NC(=O)[C@H](CCCCN)NC(=O)CNC(=O)[C@H](Cc4ccccc4)NC(=O)[C@H]([C@@H](C)CC)NC(=O)[C@H](CO)NC(=O)CNC1=O)C(=O)N[C@@H](CCSC)C(=O)N[C@@H](CC(N)=O)C(=O)N[C@@H](CCCCN)C(=O)N[C@@H](CCCCN)C(=O)N3)C(=O)N[C@@H](CCCCN)C(=O)N[C@@H](CCC(N)=O)C(=O)N[C@@H](CCCCN)C(=O)N2` [Compound 1] (H-QMDMRCSASVECKQKCLKAIGSIFGKCMNKKCKCYPR-OH; disulfide 6-27, 12-32, 16-34), the IC50 in test [1] is 0.24 nM; on Kv1.1, above 3000 nM; against Rat whole blood, at most 1 nM; at Kv1.2, 518 nM; at Kv1.3, 0.38 nM; at Kv1.6, above 3000 nM. Moreover, in test [2], the IC50 was 0.09 nM. The “Selectivity Kv1.1/Kv1.3” value on Kv1.1 is on record as above 7900. Further, on Kv1.6, the “Selectivity Kv1.6/Kv1.3” value is given as above 7900.
For `CC[C@H](C)[C@@H]1NC(=O)[C@H](C)NC(=O)[C@H](CCCCN)NC(=O)[C@H](CC(C)C)NC(=O)[C@@H]2CSSC[C@@H](C(=O)N[C@@H](Cc3ccc(O)cc3)C(=O)N3CCC[C@H]3C(=O)N[C@@H](CCCNC(=N)N)C(N)=O)NC(=O)[C@H](CCCCN)NC(=O)[C@@H]3CSSC[C@H](NC(=O)[C@H](CCC(=O)O)NC(=O)[C@H](C(C)C)NC(=O)[C@H](CO)NC(=O)[C@H](C)NC(=O)[C@H](CO)NC(=O)[C@@H](NC(=O)[C@H](CCCNC(=N)N)NC(=O)[C@H](CCSC)NC(=O)[C@H](CC(=O)O)NC(=O)[C@H](CCSC)NC(=O)[C@@H](N)CC(N)=O)CSSC[C@H](NC(=O)[C@H](CCCCN)NC(=O)CNC(=O)[C@H](Cc4ccccc4)NC(=O)[C@H]([C@@H](C)CC)NC(=O)[C@H](CO)NC(=O)CNC1=O)C(=O)N[C@@H](CCSC)C(=O)N[C@@H](CC(N)=O)C(=O)N[C@@H](CCCCN)C(=O)N[C@@H](CCCCN)C(=O)N3)C(=O)N[C@@H](CCCCN)C(=O)N[C@@H](C(C)C)C(=O)N[C@@H](CCCCN)C(=O)N2` [Compound 17] (H-NMDMRCSASVECKVKCLKAIGSIFGKCMNKKCKCYPR-NH2; disulfide 6-27, 12-32, 16-34), the IC50 in test [3] was 0.4 nM; in test [1], 0.14 nM; on Kv1.1, above 3000 nM; at Rat whole blood, at most 1 nM; on Kv1.2 it was 66 nM; on Kv1.3 it was 0.42 nM. Besides, at Kv1.6, the IC50 was determined as 912 nM. Besides, on Kv1.1, the “Selectivity Kv1.1/Kv1.3” value was above 7200.
Regarding `CCCC[C@H](NC(=O)[C@@H]1CCCN1)C(=O)N[C@@H](CC(=O)O)C(=O)N[C@@H](CCCC)C(=O)N[C@@H](CCCNC(=N)N)C(=O)N[C@H]1CSSC[C@@H]2NC(=O)[C@H](CCCCN)NC(=O)CNC(=O)[C@H](Cc3ccccc3)NC(=O)[C@H]([C@@H](C)CC)NC(=O)[C@H](CO)NC(=O)CNC(=O)[C@H]([C@@H](C)CC)NC(=O)[C@H](C)NC(=O)[C@H](CCCCN)NC(=O)[C@H](CC(C)C)NC(=O)[C@@H]3CSSC[C@@H](C(=O)N[C@@H](Cc4ccc(O)cc4)C(=O)N4CCC[C@H]4C(=O)N[C@@H](CCCNC(=N)N)C(N)=O)NC(=O)[C@H](CCCCN)NC(=O)[C@H](CSSC[C@H](NC(=O)[C@H](CCC(=O)O)NC(=O)[C@H](C(C)C)NC(=O)[C@H](CO)NC(=O)[C@H](C)NC(=O)[C@H](CO)NC1=O)C(=O)N[C@@H](CCCCN)C(=O)N[C@@H](CCC(N)=O)C(=O)N[C@@H](CCCCN)C(=O)N3)NC(=O)[C@H](CCCCN)NC(=O)[C@H](CCCCN)NC(=O)[C@H](CC(N)=O)NC(=O)[C@H](CCCC)NC2=O` [Compound 41] (H-P[Nle]D[Nle]RCSASVECKQKCLKAIGSIFGKC[Nle]NKKCKCYPR-NH2; disulfide 6-27, 12-32, 16-34), the IC50 was 0.15 nM in [1]; above 3000 nM on Kv1.1; at most 1 nM at Rat whole blood; 939 nM on Kv1.2; 0.18 nM on Kv1.3; above 3000 nM on Kv1.6. Also, the IC50 in test [2] worked out at 0.03 nM. Moreover, the “Selectivity Kv1.1/Kv1.3” value at Kv1.1 is listed as above 17100. The “% inhibition of ear thickness (AUC of Δ ear thickness 0-48 hours)” value in test [4] (Exp #1, Kv1.3 blocker 70 nmol/kg SC 24 hrs prior to KLH challenge) is 46.9 (+/−10.9) %; in test [4] (Exp #2, Kv1.3 blocker 70 nmol/kg SC 24 hrs prior to KLH challenge), 27.7 (+/−11.5) %; in test [4] (Exp #3, Kv1.3 blocker 50 nmol/kg SC 24 hrs prior to KLH challenge) it was 22.2 (+/−11.1) %; in test [4] (Exp #4, Kv1.3 blocker 100 nmol/kg SC 24 hrs prior to KLH challenge), 41.9 (+/−12.5) %. Besides, the “Selectivity Kv1.6/Kv1.3” value at Kv1.6 is recorded as above 17100.
Regarding `CCCC[C@@H]1NC(=O)[C@@H]2CSSC[C@H](NC(=O)[C@H](CCCNC(=N)N)NC(=O)[C@H](CCCC)NC(=O)[C@H](CC(=O)O)NC(=O)[C@H](CCCC)NC(=O)[C@@H](N)CC(N)=O)C(=O)N[C@@H](CO)C(=O)N[C@@H](C)C(=O)N[C@@H](CO)C(=O)N[C@@H](C(C)C)C(=O)N[C@@H](CCC(=O)O)C(=O)N[C@H]3CSSC[C@H](NC(=O)[C@H](CCCCN)NC(=O)[C@H](CCCCN)NC(=O)[C@H](CC(N)=O)NC1=O)C(=O)N[C@@H](CCCCN)C(=O)N[C@H](C(=O)N[C@@H](Cc1ccc(O)cc1)C(=O)N1CCC[C@H]1C(=O)N[C@@H](CCCNC(=N)N)C(N)=O)CSSC[C@H](NC(=O)[C@H](CO)NC(=O)[C@H](CCC(N)=O)NC(=O)[C@H](CCCCN)NC3=O)C(=O)N[C@@H](CC(C)C)C(=O)N[C@@H](CCCCN)C(=O)N[C@@H](C)C(=O)N[C@@H]([C@@H](C)CC)C(=O)NCC(=O)N[C@@H](CO)C(=O)N[C@@H]([C@@H](C)CC)C(=O)N[C@@H](Cc1ccccc1)C(=O)NCC(=O)N[C@@H](CCCCN)C(=O)N2` [Compound 48] (H-N[Nle]D[Nle]RCSASVECKQSCLKAIGSIFGKC[Nle]NKKCKCYPR-NH2; disulfide 6-27, 12-32, 16-34), the IC50 in test [1] was 0.14 nM; at Kv1.1 it was above 3000 nM; at Rat whole blood it was at most 1 nM; on Kv1.2 it was above 3000 nM; on Kv1.3, 0.37 nM; on Kv1.6, above 3000 nM. In addition, the IC50 in test [2] is 0.07 nM. The “Selectivity Kv1.1/Kv1.3” value at Kv1.1 is above 8200. Also, at Kv1.2 (ratio IC50[Kv1.2]/IC50[Kv1.3]), the “Selectivity Kv1.2/Kv1.3” value is reported as above 8200. Besides, the “Selectivity Kv1.6/Kv1.3” value at Kv1.6 is above 8200.
Take “H-NMDMRCSASVECKQKCLKAIGSIFGKCMNKKCKCYPRRRTA-NH2 (disulfide 6-27, 12-32, 16-34) [Compound 23]”: the IC50 in test [1] is 0.055 nM; on Kv1.1, 626 nM; against Rat whole blood, at most 1 nM; on Kv1.2, 28 nM; at Kv1.3, 0.15 nM; at Kv1.6 it was 215 nM. Further, the IC50 in test [2] was 0.06 nM.
